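These data come from cells grown in 96-well plates and exposed to compound for 48 hours at five concentrations. Abbreviation: GI50, concentration required for 50% inhibition of growth. TGI: total growth inhibition.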
What was measured:
Assay in all cases: NCI anticancer screen, dose series, 48 h
CCRF-CEM leukemia = tested on: CCRF-CEM leukemia
COLO 205 colon = tested on: COLO 205 colon
DU-145 prostate = tested on: DU-145 prostate
HCT-116 colon = tested on: HCT-116 colon
MOLT-4 leukemia = tested on: MOLT-4 leukemia
NCI-H460 lung = tested on: NCI-H460 lung
NCI-H522 lung = tested on: NCI-H522 lung
NCI/ADR-RES ovarian = tested on: NCI/ADR-RES ovarian
RPMI-8226 leukemia = tested on: RPMI-8226 leukemia
UO-31 renal = tested on: UO-31 renal

SMILES | GI50 (CCRF-CEM leukemia) [µM] | TGI (CCRF-CEM leukemia) [µM] | GI50 (COLO 205 colon) [µM] | TGI (COLO 205 colon) [µM] | GI50 (DU-145 prostate) [µM] | TGI (DU-145 prostate) [µM] | GI50 (HCT-116 colon) [µM] | TGI (HCT-116 colon) [µM] | GI50 (MOLT-4 leukemia) [µM] | TGI (MOLT-4 leukemia) [µM] | GI50 (NCI-H460 lung) [µM] | TGI (NCI-H460 lung) [µM] | GI50 (NCI-H522 lung) [µM] | TGI (NCI-H522 lung) [µM] | GI50 (NCI/ADR-RES ovarian) [µM] | TGI (NCI/ADR-RES ovarian) [µM] | GI50 (RPMI-8226 leukemia) [µM] | TGI (RPMI-8226 leukemia) [µM] | GI50 (UO-31 renal) [µM] | TGI (UO-31 renal) [µM]
O=c1oc2ccc(Cl)cc2c(=O)n1-c1ccc(Cl)cc1F | 1.7 | 10.4 | 6.74 | 22.4 | 0.846 | 24.7 | 0.442 | 1.7 | 0.581 | 2.69 | 0.412 | 11 | 0.331 | 3.22 | 0.532 | 3.79 | 0.28 | 1.09 | 0.188 | 1.62
CCC1CCc2nc3sc(C(=O)Nc4ccccc4F)c(N)c3cc2C1 (configuration not stated) | 1.72 | > 100 | 7.4 | > 100 | 2.82 | > 100 | 1.36 | > 100 | 0.471 | > 100 | 2.71 | > 100 | 24.8 | > 100 | 9.5 | > 100 | 0.94 | > 100 | > 100 | > 100
Nc1ccccc1NC(=O)c1ccc(CSc2nc(N3CCOCC3)c3cccn3n2)cc1 | 0.246 | > 100 | 1.07 | 2.96 | 1.63 | 37.7 | 0.379 | > 100 |  |  | 0.524 | > 100 | 0.339 | 2.09 | 0.445 | > 100 | 0.311 | 1.26 | 0.412 | 3.61
CCc1ccc(C2=C/C(=C/c3ccc(Cl)cc3)C(=O)N2CCc2ccc(S(N)(=O)=O)cc2)cc1 | 3.44 | 32.8 | 1.78 | 3.54 | 3.77 | 15.4 | 1.74 | 3.23 | 2.19 | 6.87 |  |  | 2.55 | 7.39 | 4.6 | 41.4 | 2.28 | 6.14 | 1.55 | 4.53
O=C(O)C1C2C=CC(O2)C1C(=O)Nc1ccccc1 (configuration not stated) |  | > 100 |  | > 100 |  | > 100 |  | > 100 |  | > 100 |  |  |  | > 100 |  | > 100 |  | > 100 |  | > 100
COc1cc2c(c(OC)c1OC)-c1ccc([O-])c(=O)cc1[C@@H](NC(C)=O)CC2.COc1cc2c(c(OC)c1OC)-c1ccc([O-])c(=O)cc1[C@@H](NC(C)=O)CC2.[Cu+2] | 3.33 | 19 | 2.82 | 9.19 | 2.7 | 7.21 | 3.2 | > 100 | 3.42 | 21.1 | 3.29 | 15.7 |  |  | 6.16 | 51.8 | 3.17 | 38.2 | 4.1 | 41.9
CC[C@H](C)c1occ2c(O)c(C(=O)O)c(=O)cc-2c1C |  | 53.5 |  | 36.8 |  | > 100 |  | 41.5 |  | 54.3 |  | 60.6 |  | 30.7 |  | 50.4 |  | 90.8 |  | 

From PubChem BioAssay (NCI)
